“Also recorded” adds a separate entry of the source.
Assays:
[1] = tested on: morphine tolerance; conditions: rats, cited from earlier work
[2] = tested on: morphine tolerance; conditions: in vivo; cited from earlier work
[3] = tested on: histotoxic hypoxia; assay type: in vivo; conditions: mouse, 100 mg/kg po; ≧50% indicates significant cerebral protection
[4] = tested on: mouse; experiment: General pharmacological screen: depression of behaviour; assay type: in vivo; conditions: 300 mg/kg po
Procedure: (§1) A general pharmacological screen was performed on the neuroactive steroid alphadolone.

[5] = tested on: mouse; experiment: General pharmacological screen: maximum tolerated dose, autonomic signs; assay type: in vivo; conditions: 300 mg/kg po
Procedure: as §1

[6] = tested on: morphine tolerant rats; conditions: cited from earlier work

Compound: CN1CC[C@]23c4c5ccc(O)c4O[C@H]2[C@@H](O)C=C[C@H]3[C@H]1C5 [M-IR, morphine]
- tail flick latency response to M-IR, after M-SR treatment ([1]; M-IR 6.25 mg/kg ip, after M-SR 125 mg/kg/day sc with vehicle emulsion, mean±SEM, P<0.001): 20.3±4.8 % MPE
- tail flick latency response to M-IR, pre treatment ([1]; M-IR 6.25 mg/kg ip, before M-SR treatment, mean±SEM): 89.6±2.5 % MPE

Compound: CC(=O)[C@H]1CC[C@H]2[C@@H]3CC[C@H]4C[C@H](O)CC[C@]4(C)[C@H]3CC[C@]12C [allopregnanolone]
- prevention of morphine tolerance [2]: do prevent morphine tolerance

Compound: C[C@]12CC[C@@H](O)C[C@@H]1CC[C@H]1[C@@H]3CC[C@H](C(=O)CO)[C@@]3(C)CC(=O)[C@@H]12 [alphadolone]
- occurrence of morphine tolerance (TFL) ([1]; alphadolone emulsion 250 mg/kg sc co-administered with M-SR): prevented the occurrence of morphine tolerance; also recorded: no significant tolerance occurred
- sedation ([1]; alphadolone emulsion 250 mg/kg sc with M-SR): did not cause sedation; also recorded: caused no sedation
- hypoxia KCN test result [3]: result = 50; %
- depression of behaviour [4]: no sedation
- maximum tolerated dose autonomic signs: body temperature [5]: temperature elevation

Compound: C[C@]12CC[C@H](O)CC1=CC[C@@H]1[C@@H]2CC[C@]2(C)C(=O)CC[C@@H]12 [dehydrepiandrsterone]
- prevention of morphine tolerance [2]: do prevent morphine tolerance

Compound: CC(=O)[C@H]1CC[C@H]2[C@@H]3CC=C4C[C@@H](O)CC[C@]4(C)[C@H]3CC[C@]12C [pregnenolone]
- prevention of morphine tolerance [2]: do prevent morphine tolerance

Compound: etanercept
- microglia activation and proinflammatory cytokine production [6]: inhibited
- morphine tolerance [6]: reversed the morphine tolerance
